Calls of active or inactive are those of the source. No cut-off for these calls is given here.

The test concerns Cortical neurone. Description: Induction of neurite outgrowth in rat cortical neurons at 10 uM after 4 days.
Turning to `C[C@]12COC(=O)C[C@@]3(CC(=O)[C@]1(C)O)[C@]2(O)[C@@H](O)C[C@]3(C)O`, the outcome was inactive.
For `C[C@@H]1[C@H]2C[C@]3(CC(=O)O2)C(=CC(=O)[C@@H]3C)[C@]1(C)CO` (relative stereo) the value was “inactive”; for `C[C@@H]1[C@H](O)[C@H](O)[C@@]2(O)[C@]13CC(=O)OC[C@@]2(C)[C@H](C)C(=O)C3`, “inactive”.
For `C[C@@H]1C(=O)C=C2[C@]13CC(=O)O[C@H](C3)[C@@H](C)[C@@]2(C)CO` (relative stereo) the value was “inactive”; for `C[C@@H]1C(=O)C[C@]23CC(=O)OC[C@]1(C)[C@@]2(O)[C@@H](O)C[C@]3(C)O`, “inactive”; for `C[C@@H]1C[C@H](O)[C@@]2(O)[C@]13CC(=O)OC[C@@]2(C)[C@@](C)(O)C(=O)C3`, “inactive”.
Take `C[C@@H]1[C@H](O)C[C@]23OC(=O)C[C@]12C[C@]1(O)OC[C@]3(C)[C@@H]1C`: the outcome was inactive.
For `C[C@@H]1C[C@H](O)[C@@]2(O)[C@]13CC(=O)OC[C@@]2(C)[C@H](C)C(=O)C3` the value was “inactive”.
For `C[C@]12COC(=O)C[C@@]3(CC(=O)[C@]1(C)O)[C@]2(O)CC[C@]3(C)O` the value was “inactive”.
As for `C[C@@H]1CC(=O)[C@@]2(O)[C@]13CC(=O)OC[C@@]2(C)[C@@](C)(O)C(=O)C3`, the result was inactive.
For `C[C@@H]1C[C@H](O)[C@@]23O[C@@]4(O)C[C@@]12CC(=O)OC[C@@]3(C)[C@H]4C` (relative stereo) the value was “inactive”.
As for `C[C@@H]1C[C@H](O)[C@@]2(O)[C@]13CC(=O)O[C@H](C3)[C@@H](C)[C@@]2(C)CO`, the outcome was inactive.
Under `CO[C@@]12C[C@]34CC(=O)O[C@]3(C[C@@H](O)[C@H]4C)[C@](C)(CO1)[C@@H]2C` stands “inactive”.
